Source: patent publication US7432245B2, “Pharmaceutical formulation comprising a peptide angiogenesis inhibitor” (Abbott Laboratories Inc., priority 2002, dated 2008)
Structures can show the parent of a compound that is named as a salt. Where a SMILES comes first, the peptide text is derived from it. [ ]: non-standard residue; d: D form. Nva = CCC[C@H](N)C(=O)O; Sar = CNCC(=O)O

Test: In vitro release from PLG gels into buffer at 37° C.
Assay type: physicochemical
Conditions: solution of 5% in 2:1 NMP/TA without PLG, 5 mM PBS buffer (pH 7.4), FIG. 1
Procedure: The samples of gel formulations of the acetate salt of formula (Ia) in PLG and NMP/TA were immersed in 5 mM PBS buffer (pH 7.4) and incubated at 37° C. At a predetermined time, 1 mL of the dissolution medium was withdrawn from the dissolution container, filtered, and assayed for the concentration of the acetate salt of formula (Ia) by HPLC. Fresh PBS buffer (1 mL) was added to replace the withdrawn medium.
The in vitro drug release of the acetate salt of formula (Ib) from the PLG gel formulations (IV) and (V) (from Example 6) was determined by the method described in Example 4.
The in vitro drug release profiles of PLG (24 KD) gel formulations were obtained by the methods described in Example 4.
Formulations of valproate (formulation VI), octanoate (formulation VII), and pivalate (formulation VIII) salts of the compound of formula (Ib) were prepared by substituting the appropriate salts (prepared as described in Example 1b) for the acetate salt in Example 6B. […] In addition, a formulation (formulation IX) that contained 6.0% pivalate salt of formula (Ib), 32.9% PLG (13 KD, 50:50 polymer ratio), 40.4% NMP and 20.7% TA was also prepared. The in vitro drug release profiles of formulations VI, VII, VIII, and IX were obtained by the methods described in Example 4 substituting 50 mM phosphate buffer (pH 7.4) for 5 mM PBS buffer. […]

**Q.** Which “in vitro release profile” value does the source give for `CCC[C@H](NC(=O)[C@@H](NC(=O)[C@H](NC(=O)[C@@H](NC(=O)CNC(=O)CN(C)C(C)=O)C(C)C)[C@H](C)CC)[C@@H](C)O)C(=O)N[C@H](C(=O)N[C@@H](CCCNC(=N)N)C(=O)N1CCC[C@H]1C(=O)NCC)[C@@H](C)CC` [acetate salt of formula (Ia), N-Ac-Sar-Gly-Val-DIle-Thr-Nva-Ile-Arg-ProNHCH2CH3] (Ac-[Sar]GV[dI]T[Nva]IRP-NHEt) here?
**A.** The value was “no sustained release”.
